What was measured:
[1] = test system: purple nutsedge; experiment: Test C postemergence purple nutsedge; assay type: in vivo, Cyperus rotundus; details: 0 to 100 scale, 0 no effect, 100 complete control
Procedure, shortened: (§1)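 Activity is expressed as percent-style visual control, 0 (no effect) to 100 (complete control), assessed approximately 14 to 21 days after application, relative to untreated plants. Application was postemergence, using a non-phytotoxic solvent formulation with surfactant.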

[2] = test system: hairy beggarticks; experiment: Test C postemergence hairy beggarticks; assay type: in vivo, Bidens pilosa; details: 0 to 100 scale, 0 no effect, 100 complete control
Procedure, shortened: as §1

[3] = test system: soybean; experiment: Test C postemergence soybean; assay type: in vivo, Glycine max; details: 0 to 100 scale, 0 no effect, 100 complete control
Procedure, shortened: as §1

[4] = test system: johnsongrass; experiment: Test C postemergence johnsongrass; assay type: in vivo, Sorghum halepense; details: 0 to 100 scale, 0 no effect, 100 complete control
Procedure, shortened: as §1

[5] = test system: surinam grass; experiment: Test C postemergence surinam grass; assay type: in vivo, Brachiaria decumbens; details: 0 to 100 scale, 0 no effect, 100 complete control
Procedure, shortened: as §1

[6] = test system: eastern black nightshade; experiment: Test C postemergence eastern black nightshade; assay type: in vivo, Solanum ptycanthum; details: 0 to 100 scale, 0 no effect, 100 complete control
Procedure, shortened: as §1

[7] = test system: barnyardgrass; experiment: Test C postemergence barnyardgrass; assay type: in vivo, Echinochloa crus-galli; details: 0 to 100 scale, 0 no effect, 100 complete control
Procedure, shortened: as §1

[8] = test system: common ragweed; experiment: Test C postemergence common ragweed; assay type: in vivo, Ambrosia elatior; details: 0 to 100 scale, 0 no effect, 100 complete control
Procedure, shortened: as §1

[9] = test system: giant foxtail; experiment: Test C postemergence giant foxtail; assay type: in vivo, Setaria faberii; details: 0 to 100 scale, 0 no effect, 100 complete control
Procedure, shortened: as §1

[10] = test system: fall panicum; experiment: Test C postemergence fall panicum; assay type: in vivo, Panicum dichotomiflorum; details: 0 to 100 scale, 0 no effect, 100 complete control
Procedure, shortened: as §1

[11] = test system: lambsquarters; experiment: Test C postemergence lambsquarters; assay type: in vivo, Chenopodium album; details: 0 to 100 scale, 0 no effect, 100 complete control
Procedure, shortened: as §1

[12] = test system: velvetleaf; experiment: Test C postemergence velvetleaf; assay type: in vivo, Abutilon theophrasti; details: 0 to 100 scale, 0 no effect, 100 complete control
Procedure, shortened: as §1

[13] = test system: Green foxtail; experiment: Test D green foxtail; assay type: in vivo; details: Preemergence, 0 to 100 scale
Procedure, shortened: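 Greenhouse pots, sandy loam, single species per pot. Preemergence tests: soil-surface application ≤1 day after planting. Compound formulated in non-phytotoxic solvent with surfactant. Visual rating 14–21 DAT, scale 0–100.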

[14] = test system: field bindweed; experiment: Test C postemergence field bindweed; assay type: in vivo, Convolvulus arvensis; details: 0 to 100 scale, 0 no effect, 100 complete control
Procedure, shortened: as §1

CC(C)N(C(=O)n1oc(=O)n(C(C)C)c1=O)c1ccc(F)cc1F [Compound 109]
95: Plant response rating Johnsongrass ([4]; Rate 1120 g/ha) | Plant response rating Surinam grass ([5]; Rate 1120 g/ha) | Plant response rating E. blacknightsh ([6]; Rate 1120 g/ha) | Plant response rating, Barnyardgrass ([7]; Rate 1120 g/ha) | Plant response rating Fall panicum ([10]; Rate 1120 g/ha)
35: Plant response rating, Soybean ([3]; Rate 140 g/ha)
0: Plant response rating, Purple nutsedge ([1]; Rate 140 g/ha) | Plant response rating, Purple nutsedge ([1]; Rate 280 g/ha) | Plant response rating, Purple nutsedge ([1]; Rate 560 g/ha) | Plant response rating, Purple nutsedge ([1]; Rate 1120 g/ha) | Plant response rating Johnsongrass ([4]; Rate 140 g/ha) | Plant response rating Surinam grass ([5]; Rate 140 g/ha) | Plant response rating Field bindweed ([14]; Rate 140 g/ha) | Plant response rating Field bindweed ([14]; Rate 280 g/ha)
50: Plant response rating Surinam grass ([5]; Rate 560 g/ha) | Plant response rating E. blacknightsh ([6]; Rate 140 g/ha) | Plant response rating, Giant foxtail ([9]; Rate 140 g/ha) | Plant response rating Fall panicum ([10]; Rate 140 g/ha) | Plant response rating Fall panicum ([10]; Rate 280 g/ha) | Plant response rating, Velvetleaf ([12]; Rate 560 g/ha)
30: Plant response rating Lambsquarters ([11]; Rate 560 g/ha)
85: Plant response rating H. beggarticks ([2]; Rate 1120 g/ha) | Plant response rating, Soybean ([3]; Rate 560 g/ha) | Plant response rating, Soybean ([3]; Rate 1120 g/ha) | Plant response rating, Barnyardgrass ([7]; Rate 280 g/ha) | Plant response rating, Barnyardgrass ([7]; Rate 560 g/ha) | Plant response rating, Giant foxtail ([9]; Rate 1120 g/ha)
10: Plant response rating Johnsongrass ([4]; Rate 280 g/ha) | Plant response rating Common ragweed ([8]; Rate 280 g/ha) | Plant response rating Common ragweed ([8]; Rate 560 g/ha) | Plant response rating Lambsquarters ([11]; Rate 140 g/ha) | Plant response rating Lambsquarters ([11]; Rate 280 g/ha) | Plant response rating, Velvetleaf ([12]; Rate 140 g/ha) | Plant response rating Field bindweed ([14]; Rate 560 g/ha) | Plant response rating Field bindweed ([14]; Rate 1120 g/ha)
80: Plant response rating E. blacknightsh ([6]; Rate 280 g/ha) | Plant response rating, Giant foxtail ([9]; Rate 280 g/ha) | Plant response rating, Giant foxtail ([9]; Rate 560 g/ha) | Plant response rating Fall panicum ([10]; Rate 560 g/ha)
60: Plant response rating Johnsongrass ([4]; Rate 560 g/ha) | Plant response rating, Barnyardgrass ([7]; Rate 140 g/ha)
100: Plant response rating, Green foxtail ([13]; Rate 250 g/ha) | Plant response rating, Green foxtail ([13]; Rate 500 g/ha)
75: Plant response rating, Velvetleaf ([12]; Rate 1120 g/ha)
20: Plant response rating Common ragweed ([8]; Rate 1120 g/ha) | Plant response rating, Velvetleaf ([12]; Rate 280 g/ha)
5: Plant response rating H. beggarticks ([2]; Rate 280 g/ha) | Plant response rating Surinam grass ([5]; Rate 280 g/ha) | Plant response rating Common ragweed ([8]; Rate 140 g/ha)
70: Plant response rating H. beggarticks ([2]; Rate 560 g/ha) | Plant response rating, Soybean ([3]; Rate 280 g/ha) | Plant response rating Lambsquarters ([11]; Rate 1120 g/ha)

— patent US6737383B1, “Herbicidal oxadiazolidines” (priority 1999, dated 2004)
